# Values of other authors in US20160101140A1, “Method for Processing Rosaceous Kernels” (priority 2014, published 2016).
# System: tumors
# Conditions: finding of Sugiura
compound,measurement,setting,value
"N#C[C@H](O[C@@H]1O[C@H](CO[C@@H]2O[C@H](CO)[C@@H](O)[C@H](O)[C@H]2O)[C@@H](O)[C@H](O)[C@H]1O)c1ccccc1 [Vit B17, amygdalin]",occurrence of a cancer,,can inhibit an occurrence of a cancer
same,pain caused by the cancer,,can lessen the pain caused by the cancer
same,anti-cancer activity,background section,had anti-cancer activity
same,inhibition of secondary tumors,mice,inhibited secondary tumors in mice
